Like-named read-outs stand apart in the source and are kept apart here.
Legend:
Test in all cases: CellTiter-Glo proliferation assay 72 hrs, with or without FGF2
Type in all cases: cell-based
LS411N = conditions: Homo sapiens, LS-411N
Protocol: (§1) All cell lines were purchased from ATTC (SK-MEL-5, SK-MEL-24, UACC-62, COLO 741, COLO-800, WM-266-4, Colo205, LS411N, SW 1417), ECACC (MDST8), DSMZ (CL-34) and NCI (LOX IMVI). […] Cell lines were cultured in 37° C. and 5% CO2 incubator and expanded in T-75 flasks. In all cases cells were thawed from frozen stocks, expanded through passage using 1:3 dilutions, counted and assessed for viability using a ViCell counter (Beckman-Coulter), prior to plating in 96-well or 6-well plates. To split and expand cell lines, cells were dislodged from flasks using 0.25% Trypsin-EDTA (GIBCO, Catalog number 25200). All cell lines were determined to be free of mycoplasma contamination as determined by a PCR detection methodology performed at Idexx Radii (Columbia, Mo., USA) and correctly identified by detection of a panel of SNPs.
(§2) The Compound of Formula (I) and Compound H dissolved in 100% DMSO (Cellgro, catalog number 25-290-CQC) at concentrations of 10 mM and stored at −20° C. until use. Compounds were arrayed in 2 ml deep 96-well plates (Greiner bio-one, catalog number 780271) serially diluted 3-fold seven times yielding concentration ranges from 22 nM to 16200 nM. Recombinant Human FGF basic was purchased from R&D system (Catalog number 233-FB), and reconstituted at 50 μg/ml in sterile PBS. It was used at a fixed concentration 100 ng/ml in all experiments.
(§3) For CellTiter-Glo™ assays, cells were dispensed into tissue culture treated 96-well plates (Costar, catalog number 3904) with a final volume of 80 μL of medium and at density of 3000 cells per well. 12 to 24 hrs after plating, 20 μL of each compound dilution series were transferred to plates containing the cells, resulting in compound concentration ranges of 2700 nM to 3.7 nM by 3-fold dilutions and a final DMSO concentration of 0.16%. The total volume in each well was […]. Plates were incubated for 72 hrs and the effects of compounds on cell proliferation was determined using the CellTiter-Glo™ Luminescent Cell Viability Assay (CTG, Promega) and a Victor™ X4 plate reader (Perkin Elmer). For real-time growth assays cells were seeded into xCELLigence E-plates (Roche catalogue number 05232368001) at a density of 4000 cells per well in a total of 90 μl of media and 24 hrs after plating, 11 μl of media with or without compound was added to the wells. 2-4 replicate wells were plated for all cell lines and treatment groups with the exception of LGX818+FGF2 treated COLO 741 cells (N=1). Where indicated final concentrations of compounds and growth factor were 1 uM for Compound H, 100 ng/ml for FGF2, and either 100 nM (SK-MEL-5) or 500 nM (COLO 741) for the Compound of Formula (I). Cells were continuously monitored every two hours for seven days with the xCELLigence real-time impedance based cell analyzer. Impedance was measured using the electrodes on the E-plates, with increasing surface area coverage of cells creating greater electrode impedance. […] In all cases cell index values were normalized to a timepoint immediately following the addition of compound.
(§4) To determine whether FGFRs can rescue a subset of BRAFV600E mutant melanoma cell lines treated with the Compound of Formula (I), its anti-proliferative effects were examined in eleven T1799 mutant BRAF cell lines either in the presence or absence of the FGFR-activating ligand FGF2. […] Thus, the presence of FGF2 is able to rescue a set of BRAFV600E melanoma-derived cell lines from the anti-proliferative effects of the B-Raf inhibitor of Formula (I). Furthermore, similar effects are also observed in BRAFV600E mutant cell lines derived from CRC tumors.
(§5) Mutant (mut) and wildtype (wt) status was determined from published data. […] PTEN mut designations represent a summary call based on mutation, gene copy number, and mRNA expression information for the PTEN gene.

COLO 741 = conditions: Homo sapiens
Protocol: as §1, §2, §3, §4, §5

MDST8 = MDST8 (V600K)
Protocol: as §1, §2, §3, §4, §5

SK-MEL-5 = conditions: Homo sapiens
Protocol: as §1, §2, §3, §4, §5

WM-266-4 = conditions: Homo sapiens, WM-266-4 (V600D)
Protocol: as §1, §2, §3, §4, §5

SK-MEL-24 = conditions: Homo sapiens
Protocol: as §1, §2, §3, §4, §5

COLO-800 = conditions: Homo sapiens
Protocol: as §1, §2, §3, §4, §5

COLO 205 = conditions: Homo sapiens
Protocol: as §1, §2, §3, §4, §5

UACC-62 = conditions: Homo sapiens
Protocol: as §1, §2, §3, §4, §5

CL-34 = test system: CL-34
Protocol: as §1, §2, §3, §4, §5

SW1417 = conditions: Homo sapiens
Protocol: as §1, §2, §3, §4, §5

[1] = with 100 ng/ml FGF2, read-out: LGX818 + FGF2 IC50
[2] = without FGF2, read-out: LGX818 IC50

With COC(=O)N[C@@H](C)CNc1nccc(-c2cn(C(C)C)nc2-c2cc(Cl)cc(NS(C)(=O)=O)c2F)n1 [Compound of Formula (I)] the IC50 (LS411N; [1]) was ≥ 9.23 µM, the IC50 (LS411N; [2]) was 0.185 µM and the IC50 (COLO 741; COLO 741, with 100 ng/ml FGF2, read-out: LGX818 + FGF2 IC50) was 2.65 µM. The IC50 (COLO 741; COLO 741, without FGF2, read-out: LGX818 IC50) was 0.053 µM, the IC50 (MDST8; [1]) was ≥ 10 µM and the IC50 (MDST8; [2]) was 0.141 µM. The IC50 (SK-MEL-5; SK-MEL-5, with 100 ng/ml FGF2, read-out: LGX818 + FGF2 IC50) was > 1 µM, the IC50 (SK-MEL-5; SK-MEL-5, without FGF2, read-out: LGX818 IC50) was 0.015 µM and the IC50 (WM-266-4; [1]) was 0.004 µM. For the same molecule, the IC50 (WM-266-4; [2]) was 0.003 µM, the IC50 (SK-MEL-24; SK-MEL-24, with 100 ng/ml FGF2, read-out: LGX818 + FGF2 IC50) was 0.369 µM and the IC50 (SK-MEL-24; SK-MEL-24, without FGF2, read-out: LGX818 IC50) was 0.47 µM. It also gave an IC50 (COLO-800; COLO-800, with 100 ng/ml FGF2, read-out: LGX818 + FGF2 IC50) of 0.012 µM, an IC50 (COLO-800; COLO-800, without FGF2, read-out: LGX818 IC50) of 0.009 µM and an IC50 (COLO 205; Colo 205, with 100 ng/ml FGF2, read-out: LGX818 + FGF2 IC50) of 0.005 µM. For the same molecule, the IC50 (COLO 205; Colo 205, without FGF2, read-out: LGX818 IC50) was 0.004 µM, the IC50 (UACC-62; UACC-62, with 100 ng/ml FGF2, read-out: LGX818 + FGF2 IC50) was 0.004 µM and the IC50 (UACC-62; UACC-62, without FGF2, read-out: LGX818 IC50) was 0.002 µM. For the same molecule, the IC50 (CL-34; CL-34, without FGF2, read-out: LGX818 IC50) was 0.038 µM, the IC50 (CL-34; read-out: LGX818 + FGF2 IC50) was 0.73 µM and the IC50 (SW1417; SW1417, with 100 ng/ml FGF2, read-out: LGX818 + FGF2 IC50) was 0.364 µM. It also gave an IC50 (SW1417; SW1417, without FGF2, read-out: LGX818 IC50) of 0.165 µM.
